Experimental findings from ChEMBL document CHEMBL1156615, “Nakijiquinones G-I, new sesquiterpenoid quinones from marine sponge” (Bioorg Med Chem, 2008) are described below.

Converted amounts (≈) assume the structure as drawn. The source made the active and inactive calls. The rule behind the calls is not given here.

Assay [1] has as its target Receptor tyrosine-protein kinase erbB-2 (Homo sapiens) (UniProt P04626). Briefly: Inhibition of HER2.
Another assay relates to Cryptococcus neoformans. Briefly: Antifungal activity against Cryptococcus neoformans. It is filed as functional.
The next assay deals with Escherichia coli. Put plainly: Antibacterial activity against Escherichia coli. Format: functional.
The test system of a further assay is Staphylococcus aureus. Put plainly: Antibacterial activity against Staphylococcus aureus. It is filed as functional.
A further assay has as its system Candida albicans. Briefly: Antifungal activity against Candida albicans. It is filed as functional.
For the next assay, the system named is L1210. Put plainly: Cytotoxicity against mouse L1210 cells. Format: functional, cell-based.
Another assay concerns Aspergillus niger. Briefly: Antifungal activity against Aspergillus niger. Format: functional.
Another assay has as its system KB. Briefly: Cytotoxicity against human KB cells. Format: functional, cell-based.
The test system of a further assay is Bacillus subtilis. Put plainly: Antibacterial activity against Bacillus subtilis. Format: functional.
The test system of another assay is Micrococcus luteus. Put plainly: Antibacterial activity against Micrococcus luteus. Format: functional.
The test system of another assay is P388. Briefly: Cytotoxicity against mouse P388 cells. Format: functional, cell-based.

Receptor tyrosine-protein kinase erbB-2 (Homo sapiens), sequence (P04626 whole entry): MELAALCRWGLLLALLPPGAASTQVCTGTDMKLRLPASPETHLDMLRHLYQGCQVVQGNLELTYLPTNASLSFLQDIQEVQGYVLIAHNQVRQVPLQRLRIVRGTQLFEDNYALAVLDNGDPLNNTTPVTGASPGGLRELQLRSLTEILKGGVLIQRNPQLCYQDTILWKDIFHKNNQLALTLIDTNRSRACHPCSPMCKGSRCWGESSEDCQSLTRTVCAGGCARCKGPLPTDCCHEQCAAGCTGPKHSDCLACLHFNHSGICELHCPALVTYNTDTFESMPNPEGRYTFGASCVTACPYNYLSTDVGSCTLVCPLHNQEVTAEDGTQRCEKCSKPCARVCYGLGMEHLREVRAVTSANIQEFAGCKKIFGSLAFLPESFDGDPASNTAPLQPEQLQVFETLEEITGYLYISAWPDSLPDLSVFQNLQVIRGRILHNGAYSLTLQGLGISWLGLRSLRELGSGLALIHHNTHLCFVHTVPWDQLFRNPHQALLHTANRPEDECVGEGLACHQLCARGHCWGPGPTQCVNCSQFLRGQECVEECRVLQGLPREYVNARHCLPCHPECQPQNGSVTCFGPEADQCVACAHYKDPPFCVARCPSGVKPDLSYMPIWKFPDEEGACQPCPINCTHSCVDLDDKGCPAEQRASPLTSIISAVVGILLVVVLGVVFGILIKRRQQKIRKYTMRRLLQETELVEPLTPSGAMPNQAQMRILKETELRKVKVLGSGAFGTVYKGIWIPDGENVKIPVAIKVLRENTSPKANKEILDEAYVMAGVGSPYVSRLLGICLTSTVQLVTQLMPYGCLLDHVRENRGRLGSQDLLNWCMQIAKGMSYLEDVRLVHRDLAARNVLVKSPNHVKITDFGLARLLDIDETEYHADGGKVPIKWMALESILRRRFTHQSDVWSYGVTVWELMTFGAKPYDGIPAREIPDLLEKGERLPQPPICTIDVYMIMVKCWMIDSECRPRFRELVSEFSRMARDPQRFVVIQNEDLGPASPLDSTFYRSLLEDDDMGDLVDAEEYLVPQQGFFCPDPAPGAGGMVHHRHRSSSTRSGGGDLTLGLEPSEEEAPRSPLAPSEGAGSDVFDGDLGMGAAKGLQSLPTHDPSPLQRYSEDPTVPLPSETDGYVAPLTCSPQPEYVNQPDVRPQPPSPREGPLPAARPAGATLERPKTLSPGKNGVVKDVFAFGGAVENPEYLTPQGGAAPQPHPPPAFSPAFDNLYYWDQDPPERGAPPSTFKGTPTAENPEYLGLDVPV

For the molecule `CC1=CCC[C@H]2[C@](C)(CC3=C(O)C(=O)C=C(NCCC[S+](C)[O-])C3=O)[C@@H](C)CC[C@]12C` (stereo partly drawn) [NAKIJIQUINONE I], the result in assay [1] was Active. Besides, the MIC with Cryptococcus neoformans, with Escherichia coli, against Staphylococcus aureus, in the assay on Candida albicans, against Aspergillus niger and with Bacillus subtilis was more than 33.3 µg/mL each time. Also, in the assay with Micrococcus luteus, the MIC was 33.3 µg/mL (≈ 74.4 µM). Moreover, the IC50 came to 2.4 µg/mL (≈ 5.36 µM) in the assay with L1210, 5.6 µg/mL (≈ 12.5 µM) in the assay with KB and 2.9 µg/mL (≈ 6.48 µM) with P388.
`CC1=CCC[C@H]2[C@](C)(CC3=C(O)C(=O)C=C(NCCc4cnc[nH]4)C3=O)[C@@H](C)CC[C@]12C` [NAKIJIQUINONES G]: the outcome in [1] was Active. Moreover, the MIC is more than 33.3 µg/mL with Cryptococcus neoformans; more than 33.3 µg/mL against Escherichia coli; 33.3 µg/mL (≈ 76.1 µM) with Staphylococcus aureus; more than 33.3 µg/mL against Candida albicans; more than 33.3 µg/mL in the assay on Aspergillus niger; 33.3 µg/mL (≈ 76.1 µM) in the assay with Bacillus subtilis. The molecule further displayed an MIC in the assay on Micrococcus luteus of 33.3 µg/mL (≈ 76.1 µM). For the same molecule, the IC50 in the assay on L1210 was determined as 2.9 µg/mL (≈ 6.63 µM); in the assay with KB it was 4.8 µg/mL (≈ 11 µM); in the assay with P388, 3.2 µg/mL (≈ 7.31 µM).
In the case of `CC1=CCC[C@H]2[C@](C)(CC3=C(O)C(=O)C=C(NCCCCNC(=N)N)C3=O)[C@@H](C)CC[C@]12C` [NAKIJIQUINONES H], in assay [1], the outcome was Active. In addition, the MIC in the assay on Cryptococcus neoformans was 8.35 µg/mL (≈ 18.3 µM); in the assay on Escherichia coli it was more than 33.3 µg/mL; in the assay with Staphylococcus aureus, 33.3 µg/mL (≈ 72.9 µM); in the assay on Candida albicans, 8.35 µg/mL (≈ 18.3 µM); with Aspergillus niger it was 16.7 µg/mL (≈ 36.6 µM); in the assay on Bacillus subtilis, 33.3 µg/mL (≈ 72.9 µM). Further, the lowest concentration to inhibit growth in the assay on Micrococcus luteus (MIC) was 16.7 µg/mL (≈ 36.6 µM). Further, the IC50 in the assay on L1210 was 8.5 µg/mL (≈ 18.6 µM); in the assay on KB, more than 10 µg/mL; in the assay with P388, 2.4 µg/mL (≈ 5.26 µM).
